Measured values as given in ChEMBL document CHEMBL1201862, “PubChem BioAssay data set” (2004).
Blank lines part the entries; values can stand above or below the molecule they belong to. The source made the active and inactive calls.

Key:
[1] = system: Escherichia coli; assay: microbe, parasite or virus in culture
[2] = target: G-protein coupled receptor 35 (Homo sapiens, UniProt Q9HC97); assay: GPR35 antagonists blocking zaprinast-driven arrestin recruitment, primary screen, imaging, U2OS, beta-arrestin-GFP, zaprinast agonist (AID 2058); type: functional;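 also: antagonist potency meaning inhibition of agonist-induced arrestin redistribution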
[3] = target: T1, Voltage-gated N-type calcium channel alpha-1B subunit/Amyloid beta A4 precursor protein-binding family A member 1 (Homo sapiens, UniProt Q00975+Q02410); type: protein assay
[4] = target: T1, Voltage-gated N-type calcium channel alpha-1B subunit/Amyloid beta A4 precursor protein-binding family A member 1; type: protein assay; remark: listed apart in the source
[5] = target: T2, Beta-adrenergic receptor kinase 1 (Homo sapiens, UniProt P25098); assay: Inhibitors of aptamer binding to bead-bound beta-adrenergic receptor kinase 1 by flow cytometry, biochemical, cherry pick 2, EC50 (AID 504815)
T2 sequence (P25098 whole entry): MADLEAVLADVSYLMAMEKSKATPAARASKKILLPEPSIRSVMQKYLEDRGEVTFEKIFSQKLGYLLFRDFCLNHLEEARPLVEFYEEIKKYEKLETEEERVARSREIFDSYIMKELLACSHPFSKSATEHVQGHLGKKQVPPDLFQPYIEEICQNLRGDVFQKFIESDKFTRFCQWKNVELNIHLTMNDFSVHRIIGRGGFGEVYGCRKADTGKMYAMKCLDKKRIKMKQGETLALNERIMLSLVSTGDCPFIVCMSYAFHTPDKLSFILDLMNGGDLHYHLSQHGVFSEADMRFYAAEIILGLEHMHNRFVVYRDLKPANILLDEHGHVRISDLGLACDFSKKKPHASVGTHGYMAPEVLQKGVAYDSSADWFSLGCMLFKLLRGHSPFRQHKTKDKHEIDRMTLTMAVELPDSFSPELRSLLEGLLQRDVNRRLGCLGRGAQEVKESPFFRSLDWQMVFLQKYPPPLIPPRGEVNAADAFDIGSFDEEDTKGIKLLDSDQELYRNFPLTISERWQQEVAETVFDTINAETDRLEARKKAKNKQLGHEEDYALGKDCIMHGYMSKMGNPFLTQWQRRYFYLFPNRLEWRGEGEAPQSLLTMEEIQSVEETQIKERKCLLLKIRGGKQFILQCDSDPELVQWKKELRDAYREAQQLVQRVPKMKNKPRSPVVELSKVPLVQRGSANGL

[6] = target: T2, Beta-adrenergic receptor kinase 1; assay: GRK2 inhibitors displacing RNA aptamer, dose response, biochemical, flow cytometry beads, FAM-aptamer, powder set 1 (AID 588720)
[7] = target: T3, Carboxy-terminal domain RNA polymerase II polypeptide A small phosphatase 1 (Homo sapiens, UniProt Q9GZU7); assay: inhibitors of CTDSP1, concentration-response testing, biochemical assay, absorbance-based, actives from ultra-high-throughput screening (AID 540297); type: functional
T3 sequence (Q9GZU7 whole entry): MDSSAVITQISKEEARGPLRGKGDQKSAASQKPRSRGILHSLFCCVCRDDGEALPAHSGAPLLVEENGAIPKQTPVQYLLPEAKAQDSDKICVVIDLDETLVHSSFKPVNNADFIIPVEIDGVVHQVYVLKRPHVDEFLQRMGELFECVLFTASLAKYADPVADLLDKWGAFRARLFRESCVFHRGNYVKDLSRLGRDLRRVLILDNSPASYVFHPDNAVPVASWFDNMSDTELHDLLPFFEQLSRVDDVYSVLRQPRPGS

[8] = target: T4, Small ubiquitin-related modifier 1 (Homo sapiens, UniProt P63165); assay: inhibitors of SUMO1 peptide binding, dose response, biochemical, fluorescence polarization, uHTS hits (AID 624382); type: functional; conditions: read-out: IC50_Mean
[9] = target: T4, Small ubiquitin-related modifier 1; assay: inhibitors of SUMO1 partner interactions, dose response, biochemical, FRET (AID 624383); type: functional; conditions: read-out: IC50_Mean
[10] = Luminescence Cell-Based Dose Retest to Confirm Inhibitors of Cancer Stem Cells. [Related pubchem assays (depositor defined):AID2717, AID2721]; type: functional; conditions: Homo sapiens
[11] = cytotoxicity in HMLE control line with eGFP shRNA, dose response, counter-screen for HMLE_sh_ECad selective toxicity project, cell-based, HMLE_sh_eGFP, luminescence (AID 463074); type: functional, Homo sapiens;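 also: HMLE human mammary epithelial cells expressing control shRNA against eGFP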
[12] = target: Intestinal-type alkaline phosphatase (Mus musculus, UniProt P24822); assay: PubChem AID 488875; type: functional
[13] = target: T5, Intestinal-type alkaline phosphatase (Homo sapiens, UniProt P09923); assay: human intestinal alkaline phosphatase activators, dose response, biochemical, luminescence, uHTS hits (AID 463120); type: functional
[14] = target: T5, Intestinal-type alkaline phosphatase; assay: human IAP activators, dose response, biochemical, luminescent, uHTS hits, set 2 (AID 488817); type: functional;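 also: potency of activators that raise enzyme activity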
[15] = target: T6, Alkaline phosphatase, tissue-nonspecific isozyme (Homo sapiens, UniProt P05186); assay: TNAP enzyme activators, dose response, selectivity assay for human IAP activator project, biochemical, TNAP isozyme, human IAP uHTS hits (AID 488886); type: functional;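 also: potency of compounds raising TNAP activity as a selectivity check on IAP activators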
T6 sequence (P05186 whole entry): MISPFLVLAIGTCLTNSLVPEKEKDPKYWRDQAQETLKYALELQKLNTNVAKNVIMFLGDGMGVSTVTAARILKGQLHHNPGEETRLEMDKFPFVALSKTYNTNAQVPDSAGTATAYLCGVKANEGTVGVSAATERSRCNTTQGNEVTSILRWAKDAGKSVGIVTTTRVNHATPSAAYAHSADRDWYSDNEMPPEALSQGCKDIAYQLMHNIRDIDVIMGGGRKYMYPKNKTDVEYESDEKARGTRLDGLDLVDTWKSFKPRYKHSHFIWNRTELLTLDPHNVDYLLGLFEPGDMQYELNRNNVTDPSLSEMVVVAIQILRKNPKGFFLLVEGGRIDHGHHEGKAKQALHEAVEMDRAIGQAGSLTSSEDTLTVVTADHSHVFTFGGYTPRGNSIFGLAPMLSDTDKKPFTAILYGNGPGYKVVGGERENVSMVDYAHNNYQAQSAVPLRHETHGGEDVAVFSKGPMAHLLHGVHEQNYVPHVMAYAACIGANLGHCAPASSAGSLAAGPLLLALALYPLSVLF

[16] = target: Cytochrome P450 2C19 (Homo sapiens, UniProt P33261); assay: Cytochrome panel assay with activity outcomes. Panel member name: p450-cyp2c19 Compounds with AC50 equal or less than 10 uM are considered active; type: functional
[17] = target: Cytochrome P450 2D6 (Homo sapiens, UniProt P10635);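 also: CYP2D6 member of a cytochrome P450 panel assay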
[18] = target: T7, Cytochrome P450 1A2 (Homo sapiens, UniProt P05177);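 also: PubChem cytochrome P450 panel assay, CYP1A2 panel member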
T7 sequence (P05177 whole entry): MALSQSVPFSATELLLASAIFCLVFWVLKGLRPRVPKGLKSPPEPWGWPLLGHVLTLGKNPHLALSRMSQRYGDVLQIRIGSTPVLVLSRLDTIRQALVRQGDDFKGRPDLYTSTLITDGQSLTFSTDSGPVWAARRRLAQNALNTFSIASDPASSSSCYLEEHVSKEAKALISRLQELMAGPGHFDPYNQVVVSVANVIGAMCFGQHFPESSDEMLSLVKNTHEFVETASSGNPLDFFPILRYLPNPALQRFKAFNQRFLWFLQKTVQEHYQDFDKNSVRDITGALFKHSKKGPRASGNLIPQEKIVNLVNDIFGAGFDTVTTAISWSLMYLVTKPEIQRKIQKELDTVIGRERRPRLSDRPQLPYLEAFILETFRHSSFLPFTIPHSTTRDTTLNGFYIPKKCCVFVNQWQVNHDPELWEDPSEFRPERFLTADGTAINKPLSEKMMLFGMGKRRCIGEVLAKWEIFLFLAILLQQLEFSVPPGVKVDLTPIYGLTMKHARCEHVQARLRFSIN

[19] = target: Cytochrome P450 2C9 (Homo sapiens, UniProt P11712)
[20] = target: T8, Apoptotic protease-activating factor 1 (Homo sapiens, UniProt O14727); assay: activation of Apaf-1 mediated apoptosis – fluorescent, uHTS hits, dose response (AID 588554); type: functional
T8 sequence (O14727 whole entry): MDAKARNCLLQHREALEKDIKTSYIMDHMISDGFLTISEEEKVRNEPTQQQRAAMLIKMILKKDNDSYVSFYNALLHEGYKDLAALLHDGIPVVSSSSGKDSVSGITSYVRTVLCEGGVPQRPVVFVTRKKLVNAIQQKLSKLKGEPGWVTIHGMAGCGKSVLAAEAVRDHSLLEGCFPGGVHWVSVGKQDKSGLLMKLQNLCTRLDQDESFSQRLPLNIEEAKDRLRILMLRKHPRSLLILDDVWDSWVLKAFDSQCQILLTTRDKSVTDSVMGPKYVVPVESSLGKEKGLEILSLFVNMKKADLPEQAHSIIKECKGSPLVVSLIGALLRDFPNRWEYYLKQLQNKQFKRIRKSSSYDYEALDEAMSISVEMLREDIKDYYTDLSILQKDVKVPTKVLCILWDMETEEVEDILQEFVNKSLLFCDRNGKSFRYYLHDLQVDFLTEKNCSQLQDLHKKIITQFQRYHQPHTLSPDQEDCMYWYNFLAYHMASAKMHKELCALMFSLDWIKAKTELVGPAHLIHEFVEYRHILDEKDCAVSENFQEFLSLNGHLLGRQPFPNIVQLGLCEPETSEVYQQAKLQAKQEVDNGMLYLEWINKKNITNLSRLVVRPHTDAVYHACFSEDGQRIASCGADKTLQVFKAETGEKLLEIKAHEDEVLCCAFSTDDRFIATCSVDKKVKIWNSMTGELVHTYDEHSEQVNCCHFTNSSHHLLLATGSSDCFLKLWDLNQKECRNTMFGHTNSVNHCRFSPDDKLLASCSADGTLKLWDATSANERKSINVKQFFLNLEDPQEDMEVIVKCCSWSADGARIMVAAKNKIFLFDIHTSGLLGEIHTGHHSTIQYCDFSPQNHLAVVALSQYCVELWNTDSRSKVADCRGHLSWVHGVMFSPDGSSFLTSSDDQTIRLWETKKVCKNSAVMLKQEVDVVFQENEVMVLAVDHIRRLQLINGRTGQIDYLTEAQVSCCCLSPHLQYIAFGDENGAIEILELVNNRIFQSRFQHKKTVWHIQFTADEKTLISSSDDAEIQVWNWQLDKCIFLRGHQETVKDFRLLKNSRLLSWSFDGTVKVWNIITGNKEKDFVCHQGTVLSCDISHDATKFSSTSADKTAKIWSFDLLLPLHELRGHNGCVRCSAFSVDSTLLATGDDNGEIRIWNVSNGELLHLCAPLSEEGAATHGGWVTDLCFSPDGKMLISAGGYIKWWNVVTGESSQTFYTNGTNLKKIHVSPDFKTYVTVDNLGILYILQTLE

[21] = target: T9, Tyrosine-protein phosphatase non-receptor type 7 (Homo sapiens, UniProt P35236); type: functional
T9 sequence (P35236 whole entry): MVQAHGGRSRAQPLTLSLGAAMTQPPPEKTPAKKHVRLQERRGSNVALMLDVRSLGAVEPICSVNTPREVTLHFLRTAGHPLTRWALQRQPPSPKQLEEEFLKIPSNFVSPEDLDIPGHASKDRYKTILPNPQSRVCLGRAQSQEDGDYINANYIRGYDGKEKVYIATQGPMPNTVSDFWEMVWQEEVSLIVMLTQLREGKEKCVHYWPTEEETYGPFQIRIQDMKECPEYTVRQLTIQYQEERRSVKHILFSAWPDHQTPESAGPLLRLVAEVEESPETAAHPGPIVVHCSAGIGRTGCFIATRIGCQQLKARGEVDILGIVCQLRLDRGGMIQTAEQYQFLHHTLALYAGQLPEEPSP

[22] = target: Glyceraldehyde-3-phosphate dehydrogenase (Homo sapiens, UniProt P04406)
[23] = target: T10, Dual specificity protein phosphatase 6 (Rattus norvegicus, UniProt Q64346)
T10 sequence (Q64346 whole entry): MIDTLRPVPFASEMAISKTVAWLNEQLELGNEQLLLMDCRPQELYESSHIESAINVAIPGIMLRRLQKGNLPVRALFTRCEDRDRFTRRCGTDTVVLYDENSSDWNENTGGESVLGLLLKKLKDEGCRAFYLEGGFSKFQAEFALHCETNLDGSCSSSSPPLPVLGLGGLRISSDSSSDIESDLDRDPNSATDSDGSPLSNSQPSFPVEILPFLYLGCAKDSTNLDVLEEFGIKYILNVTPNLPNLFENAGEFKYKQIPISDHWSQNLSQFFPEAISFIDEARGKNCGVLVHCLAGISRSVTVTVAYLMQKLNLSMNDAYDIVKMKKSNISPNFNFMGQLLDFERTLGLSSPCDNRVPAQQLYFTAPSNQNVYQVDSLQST

[24] = target: T10, Dual specificity protein phosphatase 6; type: functional

T4 sequence (P63165 whole entry): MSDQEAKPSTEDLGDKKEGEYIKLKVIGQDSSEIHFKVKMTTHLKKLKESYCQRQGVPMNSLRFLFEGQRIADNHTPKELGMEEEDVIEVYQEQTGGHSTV
T5 sequence (P09923 whole entry): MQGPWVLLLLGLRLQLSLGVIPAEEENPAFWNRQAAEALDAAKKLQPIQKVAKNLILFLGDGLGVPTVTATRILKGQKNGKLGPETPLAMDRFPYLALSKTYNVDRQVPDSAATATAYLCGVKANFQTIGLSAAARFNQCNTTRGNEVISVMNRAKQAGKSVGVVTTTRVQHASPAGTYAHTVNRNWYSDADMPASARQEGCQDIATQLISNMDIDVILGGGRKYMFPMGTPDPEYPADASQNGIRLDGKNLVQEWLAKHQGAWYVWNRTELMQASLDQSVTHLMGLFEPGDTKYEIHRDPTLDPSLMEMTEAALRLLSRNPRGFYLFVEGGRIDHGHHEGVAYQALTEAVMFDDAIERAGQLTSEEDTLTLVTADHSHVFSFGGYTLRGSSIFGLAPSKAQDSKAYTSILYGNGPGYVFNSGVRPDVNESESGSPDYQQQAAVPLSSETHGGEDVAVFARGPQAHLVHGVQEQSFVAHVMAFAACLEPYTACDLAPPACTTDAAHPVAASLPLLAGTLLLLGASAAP
T1 sequence (Q00975 whole entry): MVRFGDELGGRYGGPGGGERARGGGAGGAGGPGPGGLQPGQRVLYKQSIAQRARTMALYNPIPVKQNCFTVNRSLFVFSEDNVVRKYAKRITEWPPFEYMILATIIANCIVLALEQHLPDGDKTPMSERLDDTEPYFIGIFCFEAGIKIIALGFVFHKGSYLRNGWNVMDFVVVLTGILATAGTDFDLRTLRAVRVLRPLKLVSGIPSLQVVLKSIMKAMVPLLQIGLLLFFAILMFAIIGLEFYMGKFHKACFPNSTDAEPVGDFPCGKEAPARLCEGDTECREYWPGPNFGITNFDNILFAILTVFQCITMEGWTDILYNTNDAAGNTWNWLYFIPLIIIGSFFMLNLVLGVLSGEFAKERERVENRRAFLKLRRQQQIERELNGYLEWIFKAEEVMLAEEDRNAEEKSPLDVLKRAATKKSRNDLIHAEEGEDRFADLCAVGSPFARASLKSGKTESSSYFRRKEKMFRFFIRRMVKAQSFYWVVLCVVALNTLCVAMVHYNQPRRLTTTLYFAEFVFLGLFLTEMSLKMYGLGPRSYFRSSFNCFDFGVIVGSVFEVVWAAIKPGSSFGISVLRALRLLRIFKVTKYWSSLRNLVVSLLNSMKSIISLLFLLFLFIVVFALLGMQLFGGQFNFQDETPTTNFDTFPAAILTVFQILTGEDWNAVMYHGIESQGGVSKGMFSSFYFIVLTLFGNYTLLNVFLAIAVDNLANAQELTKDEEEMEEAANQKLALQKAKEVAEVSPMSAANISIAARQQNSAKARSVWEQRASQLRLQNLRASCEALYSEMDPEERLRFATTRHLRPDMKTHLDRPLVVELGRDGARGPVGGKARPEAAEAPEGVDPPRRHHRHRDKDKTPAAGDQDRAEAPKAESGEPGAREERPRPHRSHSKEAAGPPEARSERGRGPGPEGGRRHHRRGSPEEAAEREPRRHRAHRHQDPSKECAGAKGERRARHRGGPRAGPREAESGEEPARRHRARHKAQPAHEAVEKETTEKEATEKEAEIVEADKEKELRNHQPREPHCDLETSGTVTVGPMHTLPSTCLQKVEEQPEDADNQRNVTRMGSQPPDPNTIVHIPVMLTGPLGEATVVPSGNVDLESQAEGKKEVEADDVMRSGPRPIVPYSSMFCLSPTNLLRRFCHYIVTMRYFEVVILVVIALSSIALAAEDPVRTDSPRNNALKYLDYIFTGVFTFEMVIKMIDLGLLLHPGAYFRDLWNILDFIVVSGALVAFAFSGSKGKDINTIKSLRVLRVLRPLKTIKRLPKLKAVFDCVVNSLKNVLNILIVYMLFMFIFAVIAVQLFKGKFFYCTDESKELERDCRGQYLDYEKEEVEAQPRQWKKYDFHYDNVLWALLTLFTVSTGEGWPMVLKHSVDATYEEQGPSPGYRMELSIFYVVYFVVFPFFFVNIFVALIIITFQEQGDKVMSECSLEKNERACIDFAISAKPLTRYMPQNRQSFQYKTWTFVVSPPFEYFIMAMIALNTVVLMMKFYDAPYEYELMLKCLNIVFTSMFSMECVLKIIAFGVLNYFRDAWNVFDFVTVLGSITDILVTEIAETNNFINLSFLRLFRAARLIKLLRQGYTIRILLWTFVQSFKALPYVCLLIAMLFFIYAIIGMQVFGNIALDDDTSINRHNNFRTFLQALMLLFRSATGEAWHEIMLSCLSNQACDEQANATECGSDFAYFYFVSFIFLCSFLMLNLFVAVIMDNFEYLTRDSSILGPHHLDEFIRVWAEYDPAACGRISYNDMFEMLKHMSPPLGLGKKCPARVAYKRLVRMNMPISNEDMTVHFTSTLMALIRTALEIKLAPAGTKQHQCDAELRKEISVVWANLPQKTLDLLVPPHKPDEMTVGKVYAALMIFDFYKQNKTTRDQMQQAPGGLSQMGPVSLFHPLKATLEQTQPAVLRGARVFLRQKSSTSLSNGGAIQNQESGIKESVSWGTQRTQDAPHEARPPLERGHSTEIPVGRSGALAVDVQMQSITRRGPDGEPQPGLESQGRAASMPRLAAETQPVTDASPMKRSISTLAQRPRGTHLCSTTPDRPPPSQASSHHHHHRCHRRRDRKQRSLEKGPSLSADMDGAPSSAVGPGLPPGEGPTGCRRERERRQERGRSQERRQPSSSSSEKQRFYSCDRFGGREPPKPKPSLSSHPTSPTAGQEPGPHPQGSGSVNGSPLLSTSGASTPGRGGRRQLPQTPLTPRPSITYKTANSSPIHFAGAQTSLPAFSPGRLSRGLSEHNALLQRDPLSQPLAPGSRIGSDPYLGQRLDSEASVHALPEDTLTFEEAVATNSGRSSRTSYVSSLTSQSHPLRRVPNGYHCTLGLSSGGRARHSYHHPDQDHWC
T1 sequence (Q02410 whole entry): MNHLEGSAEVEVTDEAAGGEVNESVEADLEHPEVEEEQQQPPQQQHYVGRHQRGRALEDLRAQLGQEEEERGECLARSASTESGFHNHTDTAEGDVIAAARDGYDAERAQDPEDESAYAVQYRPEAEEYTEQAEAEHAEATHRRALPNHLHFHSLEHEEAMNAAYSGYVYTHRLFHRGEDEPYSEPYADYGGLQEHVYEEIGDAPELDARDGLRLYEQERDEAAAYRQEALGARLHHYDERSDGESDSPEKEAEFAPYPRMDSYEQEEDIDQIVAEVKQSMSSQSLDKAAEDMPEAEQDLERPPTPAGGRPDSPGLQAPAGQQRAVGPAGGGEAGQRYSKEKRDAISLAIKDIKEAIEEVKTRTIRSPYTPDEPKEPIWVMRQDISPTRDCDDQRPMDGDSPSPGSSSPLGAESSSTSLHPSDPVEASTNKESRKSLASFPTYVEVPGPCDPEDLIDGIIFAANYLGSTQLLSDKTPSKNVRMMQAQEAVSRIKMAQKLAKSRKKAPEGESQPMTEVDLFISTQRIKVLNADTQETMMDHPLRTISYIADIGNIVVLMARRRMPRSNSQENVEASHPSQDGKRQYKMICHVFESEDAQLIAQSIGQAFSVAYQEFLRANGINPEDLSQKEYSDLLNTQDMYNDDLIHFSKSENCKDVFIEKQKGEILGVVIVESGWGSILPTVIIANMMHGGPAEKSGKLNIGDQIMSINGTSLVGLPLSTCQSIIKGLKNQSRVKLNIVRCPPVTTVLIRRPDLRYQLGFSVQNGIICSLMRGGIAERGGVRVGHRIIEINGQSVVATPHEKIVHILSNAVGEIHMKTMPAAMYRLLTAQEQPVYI
Chain of Cytochrome P450 2C9 (P11712 whole entry): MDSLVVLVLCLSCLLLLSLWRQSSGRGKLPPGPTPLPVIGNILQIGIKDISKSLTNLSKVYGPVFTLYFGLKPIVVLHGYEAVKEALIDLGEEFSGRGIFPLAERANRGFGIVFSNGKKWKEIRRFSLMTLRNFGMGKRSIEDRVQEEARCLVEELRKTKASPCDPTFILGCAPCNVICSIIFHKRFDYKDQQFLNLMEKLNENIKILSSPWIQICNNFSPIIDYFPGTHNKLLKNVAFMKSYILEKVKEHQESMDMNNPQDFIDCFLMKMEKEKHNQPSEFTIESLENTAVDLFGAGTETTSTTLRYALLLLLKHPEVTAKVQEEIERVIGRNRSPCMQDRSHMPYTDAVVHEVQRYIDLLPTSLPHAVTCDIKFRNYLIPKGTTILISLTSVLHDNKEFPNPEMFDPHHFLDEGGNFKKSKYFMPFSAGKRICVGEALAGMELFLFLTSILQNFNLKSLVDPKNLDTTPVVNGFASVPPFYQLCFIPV
Chain of Glyceraldehyde-3-phosphate dehydrogenase (P04406 whole entry): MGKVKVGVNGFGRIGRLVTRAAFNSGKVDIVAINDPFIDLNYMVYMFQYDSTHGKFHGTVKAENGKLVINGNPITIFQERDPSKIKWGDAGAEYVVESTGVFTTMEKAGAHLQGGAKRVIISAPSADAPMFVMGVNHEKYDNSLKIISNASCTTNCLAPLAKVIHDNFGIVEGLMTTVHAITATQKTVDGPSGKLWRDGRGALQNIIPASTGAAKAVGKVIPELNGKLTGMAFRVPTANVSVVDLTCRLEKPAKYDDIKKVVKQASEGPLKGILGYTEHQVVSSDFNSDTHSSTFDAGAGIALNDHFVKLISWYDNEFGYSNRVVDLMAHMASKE
Chain of G-protein coupled receptor 35 (Q9HC97 whole entry): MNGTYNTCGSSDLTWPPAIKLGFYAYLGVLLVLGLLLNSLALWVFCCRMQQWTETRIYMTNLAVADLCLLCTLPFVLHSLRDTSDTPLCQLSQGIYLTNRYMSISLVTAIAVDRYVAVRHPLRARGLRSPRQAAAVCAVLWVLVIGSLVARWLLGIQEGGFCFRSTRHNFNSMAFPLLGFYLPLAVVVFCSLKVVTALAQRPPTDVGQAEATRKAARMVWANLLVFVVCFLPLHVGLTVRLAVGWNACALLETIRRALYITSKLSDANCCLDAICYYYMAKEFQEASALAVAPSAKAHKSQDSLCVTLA

SMILES: Cc1ccc(-n2nnnc2SCC(=O)Nc2ccc3c(c2)OCCO3)cc1C
AC50 [1]: 30.9 µM (active)

SMILES: NS(=O)(=O)c1ccc(CCNC(=O)CCS(=O)(=O)c2ccc(Br)cc2)cc1
IC50 [2]: 2.23 µM (active)
IC50 [3]: 40.9 µM (active)
IC50 [4]: > 50 µM (inactive)
EC50 [5]: 5.2 µM (active)
EC50 [6]: 1.21 µM (active)
IC50 [7]: 4.17 µM (active)
IC50 [8]: > 66.6 µM (inactive)
IC50 [9]: 9.08 µM (active)

SMILES: O=C(CCS(=O)(=O)c1ccccc1)Nc1nc(-c2ccc(F)cc2)cs1
AC50 [10]: 10.4 µM (active)
AC50 [11]: 143 µM (active)

SMILES: CC(C)(C)NC(=O)C(=O)NNC(=O)COc1ccccc1
EC50 [12]: > 100 µM (inactive)
EC50 [13]: 28 µM (active)
EC50 [14]: 28.4 µM (active)
EC50 [15]: 36.4 µM (active)

SMILES: Cc1cc(C)n(CC(C)C(=O)O)n1 (centres undefined)
EC50 [20]: 10.9 µM (active)

Other lines, results leading:

AC50 [16]: inconclusive
AC50 [17]: inconclusive
AC50 [18]: inconclusive
AC50 [19]: inconclusive
SMILES: O=C(c1cc(C(F)(F)F)cc(C(F)(F)F)c1)N1CCC2(CC1)CN(c1ncccn1)C2

IC50 [21]: > 100 µM (not active)
IC50 [22]: > 100 µM (not active)
IC50 [23]: > 100 µM (inactive)
IC50 [24]: > 100 µM (inactive)
SMILES: O=c1nc(NCCc2ccccc2)[nH]c(=O)n1-c1ccccc1
